Data set [1] in a line: Pharmacokinetics test in rats (oral; plasma concentration of the compound of formula 2 by HPLC). The class given is in vivo, rat. The method, then:
Male white rats (Sprague-Dawley) having body weights of 230˜260 g were used, 3˜4 rats were tested for a drug. Rats were fasted for 18˜20 hours before the drug was administered. The weight of rat was measured on the day of the experiment, the drug was administered orally to the rats according to dosage. After administration, rats were lightly anesthetized with diethyl ether. At […], 0.17, 0.5, 1.0, 1.5, 3.0, 5.0, 8.0 hours, the blood was collected from orbit vein of the rats by canulation. The collected blood was centrifuged, and the plasma was isolated. To determine concentration of the drug in plasma, HPLC was carried out as follows. Acetonitrile containing internal standard substance and the isolated plasma was mixed in the same amount, followed by centrifuging at 12,000 rpm. The supernatent was applied to HPLC, bioavailability of the compounds prepared in EXAMPLES was measured by analyzing a plasma concentration of the compound of formula 2.
Pharmacokinetics parameters were measured by noncompartmental analysis, using WinNolin (ver. 1.0 Scientific Consulting Inc., USA). Time and maximum plasma concentration were registered by observed data, half life was calculated by linear regression analysis of terminal elimination phase.

The test system of another data set is osteoclast cell. The experiment in a line: Change in the number of osteoclast cell in osteoporotic rats induced by ovariectomy. The format is in vivo, rat. The conditions noted are these: for osteoclast cells inducing the osteolysis (in words): osteoporotic rats induced by ovariectomy, group administered the drug; for number of osteoclast cell, Tibia Left / number of osteoclast cell, Tibia Right / number of osteoclast cell, femur Left / number of osteoclast cell, femur Right: ovariectomized rats, cells within 1 mm^2 area, 10 sections, mean±SD, PEG 100 solution, intramuscular injection, 40 days; for number of osteoclast cell, femur Right: same concentration as formula 2 (100 mg per kg). The procedure: (§1) To investigate therapeutic value of the osteoporosis to ovariectomized rats, change in the number of osteoclast cell and area ratio of trabecular bone (volume %) were measured.
(§2) After 25 female white rats purchased from Chales River (Japan) were adjusted to a new environment, temperature of 20˜25° C. and relative humidity of 30˜35%. The 5 rats were positioned in a hutch, feed (Sam Yang corporation) and water were supplied to the rats. 20 rats had the operation for the removal of an ovary, 5 rats had the Sham operation for opening and suturing the abdominal cavity, used as Sham control group.
(§3) Also, to compare drug efficacies of EXAMPLE and the compound of formula 2, 5 rats removed of the ovary were used as experimental group. The compound of formula 2 was dissolved in injectable distilled water and administered to the rats orally in an amount of 100 mg per kg for 40 days from 10 weeks after ovariectomy or Sham-operation, using oral sonde. 5 ml/kg was administered to the rats. […] 5 ml/kg was administered to the rats.
(§4) After administration terminated, the femur and tibia were removed from the animals, and fixed in 10% neutral formalin. The fixed tissue was decalcified in a solution (solution mixed 24.4% formic acid and 0.5 N sodium hydroxide) for 5 days, embedded in paraffin and 3˜4 μm sections were prepared. After that prepared section were dyed by hematoxylin-eosin.
Change in the number of osteoclast cell was calculated by mean±standard deviation through the number of the osteoclast cell existed within 1 mm^2 area at the 10 sections. The experiment group administered was compared with the control group not and Sham group.

Data set [2] deals with osteoporotic rat induced by ovariectomy. The data set can be described thus: Area ratio of trabecular bone in osteoporotic rats induced by ovariectomy. The class given is in vivo. The conditions noted are these: for area ratio of trabecular bone, Femur Left / area ratio of trabecular bone, Tibia Left / area ratio of trabecular bone, Tibia Right / area ratio of trabecular bone, Femur Right: ovariectomized rats, 40 days. The method, then:
as §1, §2, §3, §4
Also, the area ratio of trabecular bone was calculated at the section of the femur and tibia respectively, through the equation.

The mark [3] stands for this setting: male Sprague-Dawley rats, 50 mg/kg, vehicle DW (distilled water).
Where [4] appears, read: male Sprague-Dawley rats, 50 mg/kg, vehicle DW (distilled water), analyte compound of formula 2 in plasma.
Setting [5] is: male Sprague-Dawley rats, 100 mg/kg, vehicle DW (distilled water).
The mark [6] stands for this setting: osteoporotic rats induced by ovariectomy.
Where [7] appears, read: PEG 100 solution, intramuscular injection.
Where [8] appears, read: injectable distilled water, oral, 100 mg per kg.

The record followed here is patent US7291638B2, “3-amido-1,2-benzoisoxazole derivatives, process for preparation, and use thereof” (Dongwha Pharm. Ind. Co., Ltd., priority 2001, dated 2007).

Like-named read-outs stand apart in the source and are kept apart here.

What is called Tmax is the time from dosing to the highest level. A word on the Cmax: it is the maximum level reached in the sampled fluid or tissue. Take “{5-[4-(4-diisopropylcarbamoyl-2-methoxy-phenoxy)-butoxy]-benzo[d]isoxazole-3-ylcarbamoyl}-methyl-ammonium methane sulfonic acid salt [Example 1]”: in data set [1] (setting [3]), the Tmax turned out to be 30 min and the “Total AUC” value was found to be 5720 ng·h/mL. In data set [1] (setting [4]), this molecule gave a Cmax of 1530 ng/mL. Further, in data set [1] (setting [5]), the Cmax came to 1510 ng/mL, the Tmax is 30 min and the “Total AUC” value turned out to be 11080 ng·h/mL. Further, in the data set with osteoclast cell, the “osteoclast cells inducing the osteolysis (in words)” value is “significantly decreased”; the “number of osteoclast cell, Tibia Left” value was 5.40 ± 2.76*.^##; the “number of osteoclast cell, Tibia Right” value was 5.30 ± 2.00*.^#; the “number of osteoclast cell, femur Left” value is on record as 5.10 ± 2.38*.^#. Also, in the data set with osteoclast cell, the “number of osteoclast cell, femur Right” value is given as 4.90 ± 1.52*.^#.
`COc1cc(C(=O)N(C(C)C)C(C)C)ccc1OCCCCOc1ccc2onc(NC(=O)[C@H](C)N)c2c1.CS(=O)(=O)O` [Example 2, (1S)-1-{5-[4-(4-diisopropylcarbamoyl-2-methoxy-phenoxy)-butoxy]-benzo[d]isoxazole-3-ylcarbamoyl)-ethyl-ammonium methane sulfonic acid salt]: in the data set on osteoclast cell, the “osteoclast cells inducing the osteolysis (in words)” value was “significantly decreased”; the “number of osteoclast cell, Tibia Left” value is 4.50 ± 1.60*.^#; the “number of osteoclast cell, Tibia Right” value is reported as 5.63 ± 1.30*.^#; the “number of osteoclast cell, femur Left” value is 4.50 ± 1.69*.^#. In the data set on osteoclast cell, the “number of osteoclast cell, femur Right” value is 5.00 ± 1.51*.^##. For the same molecule, in data set [2] (setting [6]), the “area ratio of trabecular bone compared to the control group (in words)” value is on record as “excellently increased” and the “therapeutic value (area ratio of the trabecular bone) compared with the compound of formula 2 (in words)” value is on record as “more distinguished therapeutic value than the compound of formula 2”. In data set [2] (setting [7]), the “area ratio of trabecular bone, Femur Left” value turned out to be 41.95 ± 8.78 volume %; the “area ratio of trabecular bone, Tibia Left” value is 40.12 ± 7.20**.^# volume %; the “area ratio of trabecular bone, Tibia Right” value is given as 35.58 ± 9.55*.^## volume %. Besides, in data set [2] (PEG 100 solution, intramuscular injection, same concentration as formula 2 (100 mg per kg)), the “area ratio of trabecular bone, Femur Right” value is reported as 33.93 ± 3.71*.^## volume %.
Take `COc1cc(C(=O)N(C(C)C)C(C)C)ccc1OCCCCOc1ccc2onc(NC(=O)[C@@H](N)C(C)C)c2c1.CS(=O)(=O)O` [Example 4, (1S)-1-{5-[4-(4-diisopropylcarbamoyl-2-methoxy-phenoxy)-butoxy]-benzo[d-]isoxazole-3-ylcarbamoyl)-2-methyl-propyl-ammonium methane sulfonic acid salt]: in data set [1] (setting [3]), the T1/2 came out at 66.6 min, the time of peak concentration (Tmax) came to 30 min and the “Total AUC” value is 2450 ng·h/mL. In data set [1] (setting [4]), this molecule showed a peak concentration (Cmax) of 980 ng/mL.
In general, half-life refers to the time in which the quantity being followed falls by half. Read a low half-life as fast loss. On to `COc1cc(C(=O)N(C(C)C)C(C)C)ccc1OCCCCOc1ccc2c(N)noc2c1` [Formula 2, reference compound], for which the “Total AUC” value in data set [1] (male Sprague-Dawley rats, 50 mg/kg, vehicle DMSO) came out at 190 ng·h/mL. In data set [1] (male, Sprague-Dawley, rat, plasma, po, 50 mg/kg, male Sprague-Dawley rats, 50 mg/kg, vehicle DMSO, read-out: Cmax), the Cmax is 470 ng/mL. In addition, in data set [1] (male, Sprague-Dawley, rat, plasma, po, 50 mg/kg, male Sprague-Dawley rats, 50 mg/kg, vehicle DMSO, read-out: Tmax), the Tmax amounted to 10.2 min. In data set [1] (male, Sprague-Dawley, rat, plasma, po, 50 mg/kg, male Sprague-Dawley rats, 50 mg/kg, vehicle DW + T (distilled water + tween 80), read-out: Cmax), the Cmax was determined as 80 ng/mL. The time to peak (Tmax) in data set [1] (male, Sprague-Dawley, rat, plasma, po, 50 mg/kg, male Sprague-Dawley rats, 50 mg/kg, vehicle DW + T (distilled water + tween 80), read-out: Tmax) turned out to be 90 min. The “drug absorption (in words)” value in data set [1] (rat, 50 mg per kg, dissolved in distilled water and tween 80) is “no drug was absorbed”. In addition, the half-life in data set [1] (rat, plasma, male Sprague-Dawley rats, 50 mg/kg, vehicle DMSO) is 19.2 min. Moreover, in data set [2] (setting [8]), the “area ratio of trabecular bone, Femur Left” value is 31.38 ± 7.88*.^## volume %; the “area ratio of trabecular bone, Femur Right” value came out at 31.69 ± 9.83 volume %; the “area ratio of trabecular bone, Tibia Left” value is recorded as 28.22 ± 5.54 volume %; the “area ratio of trabecular bone, Tibia Right” value is on record as 29.35 ± 11.37 volume %.
